{"source": "patent US20230085307A1", "about": "“PYRIDAZINONE COMPOUND AND HERBICIDE” (NISSAN CHEMICAL CORPORATION, priority 2019, published 2023)", "key": {"[1]": {"tested_on": "late watergrass", "assay": "Test Example 1: herbicidal activity, application before weed generation under submerged conditions (Table 16, symbol A)", "type": "in vivo, late watergrass (Echinochloa oryzicola)", "conditions": "amount of applied herbicide 320 g/ha", "outline": "(§1)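 Emulsion formulation, water-diluted to set dose, was put onto the flooded surface (4 cm depth, alluvial soil) the same day weeds were sown and 2.5-leaf rice transplanted. After 3 weeks at 25-30 °C under glass, each species was rated 0 (≤5% kill) to 5 (≥90% kill).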"}, "[2]": {"tested_on": "Italian ryegrass", "assay": "Test Example 4: herbicidal effect by soil treatment (Table 19, symbol K)", "type": "in vivo, Italian ryegrass (Lolium multiflorum)", "conditions": "amount of applied herbicide 320 g/ha", "outline": "(§2)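 Step 1: sow seeds in sterilized diluvial soil, cover ~1.5 cm. Step 2: spray diluted emulsion onto soil surface at predetermined rate. Step 3: greenhouse, 25–30° C, three weeks. Step 4: grade effect on each plant by earlier criteria.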"}, "[3]": {"tested_on": "windgrass", "assay": "Test Example 4: herbicidal effect by soil treatment (Table 19, symbol L)", "type": "in vivo, windgrass (Apera spica-venti)", "conditions": "amount of applied herbicide 320 g/ha", "outline": "as §2"}, "[4]": {"tested_on": "blackgrass", "assay": "Test Example 5: herbicidal effect by foliage application, plastic box (Table 20, symbol J)", "type": "in vivo, blackgrass (Alopecurus myosuroides)", "conditions": "amount of applied herbicide 320 g/ha; foliage application after 14-day growth; evaluated three weeks after application", "outline": "(§3)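 Foliar spray test: emulsion formulation diluted in water to a set application rate, sprayed onto 14-day-old plants raised in diluvial soil at 25° C to 30° C under glass. Both herbicidal effect and crop effect rated visually three weeks later.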"}, "[5]": {"tested_on": "windgrass", "assay": "Test Example 5: herbicidal effect by foliage application, plastic box (Table 20, symbol L)", "type": "in vivo, windgrass (Apera spica-venti)", "conditions": "amount of applied herbicide 320 g/ha; foliage application after 14-day growth; evaluated three weeks after application", "outline": "as §3"}, "[6]": {"tested_on": "redroot pigweed", "assay": "Test Example 4: herbicidal effect by soil treatment (Table 19, symbol N)", "type": "in vivo, redroot pigweed (Amaranthus retroflexus)", "conditions": "amount of applied herbicide 320 g/ha", "outline": "as §2"}, "[7]": {"tested_on": "barnyard grass", "assay": "Test Example 5: herbicidal effect by foliage application, plastic box (Table 20, symbol H)", "type": "in vivo, barnyard grass (Echinochloa crus-galli)", "conditions": "amount of applied herbicide 320 g/ha; foliage application after 14-day growth; evaluated three weeks after application", "outline": "as §3"}, "[8]": {"tested_on": "chickweed", "assay": "Test Example 4: herbicidal effect by soil treatment (Table 19, symbol P)", "type": "in vivo, common chickweed (Stellaria media)", "conditions": "amount of applied herbicide 320 g/ha", "outline": "as §2"}, "[9]": {"tested_on": "southern crabgrass", "assay": "Test Example 5: herbicidal effect by foliage application, plastic box (Table 20, symbol F)", "type": "in vivo, southern crabgrass (Digitaria ciliaris)", "conditions": "amount of applied herbicide 320 g/ha; foliage application after 14-day growth; evaluated three weeks after application", "outline": "as §3"}, "[10]": {"tested_on": "rice flat sedge", "assay": "Test Example 3: herbicidal effect by foliage application, Wagner pot (Table 18, symbol E)", "type": "in vivo, rice flat sedge (Cyperus iria)", "conditions": "320 g/ha", "outline": "(§4)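 Plants were sown in alluvial soil held under 0.1–0.5 cm standing water and grown 14 days in a greenhouse at 25–30 °C. An emulsifiable formulation, water-diluted to the set dose, was then sprayed onto the foliage, and effects were scored three weeks later using previously defined criteria.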"}, "[11]": {"tested_on": "oval-leafed pondweed", "assay": "Test Example 1: herbicidal activity, application before weed generation under submerged conditions (Table 16, symbol C)", "type": "in vivo, oval-leafed pondweed (Monochoria vaginalis)", "conditions": "amount of applied herbicide 320 g/ha", "outline": "as §1"}, "[12]": {"tested_on": "blackgrass", "assay": "Test Example 4: herbicidal effect by soil treatment (Table 19, symbol J)", "type": "in vivo, blackgrass (Alopecurus myosuroides)", "conditions": "amount of applied herbicide 320 g/ha", "outline": "as §2"}, "[13]": {"tested_on": "persian speedwell", "assay": "Test Example 4: herbicidal effect by soil treatment (Table 19, symbol R)", "type": "in vivo, Persian speedwell (Veronica persica)", "conditions": "amount of applied herbicide 320 g/ha", "outline": "as §2"}, "[14]": {"tested_on": "velvetleaf", "assay": "Test Example 5: herbicidal effect by foliage application, plastic box (Table 20, symbol M)", "type": "in vivo, velvetleaf (Abutilon theophrasti)", "conditions": "amount of applied herbicide 320 g/ha; foliage application after 14-day growth; evaluated three weeks after application", "outline": "as §3"}, "[15]": {"tested_on": "wild oat", "assay": "Test Example 5: herbicidal effect by foliage application, plastic box (Table 20, symbol I)", "type": "in vivo, wild oat (Avena fatua)", "conditions": "amount of applied herbicide 320 g/ha; foliage application after 14-day growth; evaluated three weeks after application", "outline": "as §3"}, "[16]": {"tested_on": "chickweed", "assay": "Test Example 5: herbicidal effect by foliage application, plastic box (Table 20, symbol P)", "type": "in vivo, common chickweed (Stellaria media)", "conditions": "amount of applied herbicide 320 g/ha; foliage application after 14-day growth; evaluated three weeks after application", "outline": "as §3"}, "[17]": {"tested_on": "barnyard grass", "assay": "Test Example 3: herbicidal effect by foliage application, Wagner pot (Table 18, symbol H)", "type": "in vivo, barnyard grass (Echinochloa crus-galli)", "conditions": "320 g/ha", "outline": "as §4"}, "[18]": {"tested_on": "green foxtail", "assay": "Test Example 5: herbicidal effect by foliage application, plastic box (Table 20, symbol G)", "type": "in vivo, green foxtail (Setaria viridis)", "conditions": "amount of applied herbicide 320 g/ha; foliage application after 14-day growth; evaluated three weeks after application", "outline": "as §3"}, "[19]": {"tested_on": "southern crabgrass", "assay": "Test Example 4: herbicidal effect by soil treatment (Table 19, symbol F)", "type": "in vivo, southern crabgrass (Digitaria ciliaris)", "conditions": "amount of applied herbicide 320 g/ha", "outline": "as §2"}, "[20]": {"tested_on": "velvetleaf", "assay": "Test Example 4: herbicidal effect by soil treatment (Table 19, symbol M)", "type": "in vivo, velvetleaf (Abutilon theophrasti)", "conditions": "amount of applied herbicide 320 g/ha", "outline": "as §2"}, "[21]": {"tested_on": "Japanese bulrush", "assay": "Test Example 1: herbicidal activity, application before weed generation under submerged conditions (Table 16, symbol B)", "type": "in vivo, Japanese bulrush (Schoenoplectus juncoides)", "conditions": "amount of applied herbicide 320 g/ha", "outline": "as §1"}, "[22]": {"tested_on": "lambsquarters", "assay": "Test Example 4: herbicidal effect by soil treatment (Table 19, symbol O)", "type": "in vivo, lambsquarters (Chenopodium album)", "conditions": "amount of applied herbicide 320 g/ha", "outline": "as §2"}, "[23]": {"tested_on": "redroot pigweed", "assay": "Test Example 5: herbicidal effect by foliage application, plastic box (Table 20, symbol N)", "type": "in vivo, redroot pigweed (Amaranthus retroflexus)", "conditions": "amount of applied herbicide 320 g/ha; foliage application after 14-day growth; evaluated three weeks after application", "outline": "as §3"}, "[24]": {"tested_on": "barnyard grass", "assay": "Test Example 4: herbicidal effect by soil treatment (Table 19, symbol H)", "type": "in vivo, barnyard grass (Echinochloa crus-galli)", "conditions": "amount of applied herbicide 320 g/ha", "outline": "as §2"}, "[25]": {"tested_on": "persian speedwell", "assay": "Test Example 5: herbicidal effect by foliage application, plastic box (Table 20, symbol R)", "type": "in vivo, Persian speedwell (Veronica persica)", "conditions": "amount of applied herbicide 320 g/ha; foliage application after 14-day growth; evaluated three weeks after application", "outline": "as §3"}, "[26]": {"tested_on": "Chinese sprangletop", "assay": "Test Example 3: herbicidal effect by foliage application, Wagner pot (Table 18, symbol D)", "type": "in vivo, chinese sprangletop (Leptochloa chinensis)", "conditions": "320 g/ha", "outline": "as §4"}, "[27]": {"tested_on": "lambsquarters", "assay": "Test Example 5: herbicidal effect by foliage application, plastic box (Table 20, symbol O)", "type": "in vivo, lambsquarters (Chenopodium album)", "conditions": "amount of applied herbicide 320 g/ha; foliage application after 14-day growth; evaluated three weeks after application", "outline": "as §3"}, "[28]": {"tested_on": "Italian ryegrass", "assay": "Test Example 5: herbicidal effect by foliage application, plastic box (Table 20, symbol K)", "type": "in vivo, Italian ryegrass (Lolium multiflorum)", "conditions": "amount of applied herbicide 320 g/ha; foliage application after 14-day growth; evaluated three weeks after application", "outline": "as §3"}, "[29]": {"tested_on": "wild oat", "assay": "Test Example 4: herbicidal effect by soil treatment (Table 19, symbol I)", "type": "in vivo, wild oat (Avena fatua)", "conditions": "amount of applied herbicide 320 g/ha", "outline": "as §2"}, "[30]": {"tested_on": "green foxtail", "assay": "Test Example 4: herbicidal effect by soil treatment (Table 19, symbol G)", "type": "in vivo, green foxtail (Setaria viridis)", "conditions": "amount of applied herbicide 320 g/ha", "outline": "as §2"}}, "data": [{"smiles": "CCCC(=O)Oc1c(C)nn(C)c(=O)c1-c1c(-c2ccccc2OC(F)(F)F)sc2c(Cl)cccc12", "note": "[4-077]", "values": [{"measurement": "Herbicidal effect, A: late watergrass", "setting": "[1]", "value": "3 (Herbicidal rate of 40% or more and less than 70%)"}, {"measurement": "Herbicidal effect by soil treatment, K: Italian ryegrass", "setting": "[2]", "value": "0 (Herbicidal rate of 5% or less (almost no effect))"}, {"measurement": "Herbicidal effect by soil treatment, L: windgrass", "setting": "[3]", "value": "0 (Herbicidal rate of 5% or less (almost no effect))"}, {"measurement": "Herbicidal effect by foliage application, J: blackgrass", "setting": "[4]", "value": "0 (Herbicidal rate of 5% or less (almost no effect))"}, {"measurement": "Herbicidal effect by foliage application, L: windgrass", "setting": "[5]", "value": "0 (Herbicidal rate of 5% or less (almost no effect))"}, {"measurement": "Herbicidal effect by soil treatment, N: redroot pigweed", "setting": "[6]", "value": "3 (Herbicidal rate of 40% or more and less than 70%)"}, {"measurement": "Herbicidal effect by foliage application, H: barnyard grass", "setting": "[7]", "value": "3 (Herbicidal rate of 40% or more and less than 70%)"}, {"measurement": "Herbicidal effect by soil treatment, P: chickweed", "setting": "[8]", "value": "0 (Herbicidal rate of 5% or less (almost no effect))"}, {"measurement": "Herbicidal effect by foliage application, F: southern crabgrass", "setting": "[9]", "value": "0 (Herbicidal rate of 5% or less (almost no effect))"}, {"measurement": "herbicidal effect on rice flat sedge (E)", "setting": "[10]", "value": "5 (Herbicidal rate of 90% or more (almost completely withered))"}, {"measurement": "Herbicidal effect, C: oval-leafed pondweed", "setting": "[11]", "value": "0 (Herbicidal rate of 5% or less (almost no effect))"}, {"measurement": "Herbicidal effect by soil treatment, J: blackgrass", "setting": "[12]", "value": "0 (Herbicidal rate of 5% or less (almost no effect))"}, {"measurement": "Herbicidal effect by soil treatment, R: persian speedwell", "setting": "[13]", "value": "3 (Herbicidal rate of 40% or more and less than 70%)"}, {"measurement": "Herbicidal effect by foliage application, M: velvetleaf", "setting": "[14]", "value": "5 (Herbicidal rate of 90% or more (almost completely withered))"}, {"measurement": "Herbicidal effect by foliage application, I: wild oat", "setting": "[15]", "value": "0 (Herbicidal rate of 5% or less (almost no effect))"}, {"measurement": "Herbicidal effect by foliage application, P: chickweed", "setting": "[16]", "value": "5 (Herbicidal rate of 90% or more (almost completely withered))"}, {"measurement": "herbicidal effect on barnyard grass (H)", "setting": "[17]", "value": "5 (Herbicidal rate of 90% or more (almost completely withered))"}, {"measurement": "Herbicidal effect by foliage application, G: green foxtail", "setting": "[18]", "value": "3 (Herbicidal rate of 40% or more and less than 70%)"}, {"measurement": "Herbicidal effect by soil treatment, F: southern crabgrass", "setting": "[19]", "value": "0 (Herbicidal rate of 5% or less (almost no effect))"}, {"measurement": "Herbicidal effect by soil treatment, M: velvetleaf", "setting": "[20]", "value": "0 (Herbicidal rate of 5% or less (almost no effect))"}, {"measurement": "Herbicidal effect, B: Japanese bulrush", "setting": "[21]", "value": "0 (Herbicidal rate of 5% or less (almost no effect))"}, {"measurement": "Herbicidal effect by soil treatment, O: lambsquarters", "setting": "[22]", "value": "0 (Herbicidal rate of 5% or less (almost no effect))"}, {"measurement": "Herbicidal effect by foliage application, N: redroot pigweed", "setting": "[23]", "value": "5 (Herbicidal rate of 90% or more (almost completely withered))"}, {"measurement": "Herbicidal effect by soil treatment, H: barnyard grass", "setting": "[24]", "value": "0 (Herbicidal rate of 5% or less (almost no effect))"}, {"measurement": "Herbicidal effect by foliage application, R: persian speedwell", "setting": "[25]", "value": "5 (Herbicidal rate of 90% or more (almost completely withered))"}, {"measurement": "herbicidal effect on Chinese sprangletop (D)", "setting": "[26]", "value": "4 (Herbicidal rate of 70% or more and less than 90%)"}, {"measurement": "Herbicidal effect by foliage application, O: lambsquarters", "setting": "[27]", "value": "4 (Herbicidal rate of 70% or more and less than 90%)"}, {"measurement": "Herbicidal effect by foliage application, K: Italian ryegrass", "setting": "[28]", "value": "3 (Herbicidal rate of 40% or more and less than 70%)"}, {"measurement": "Herbicidal effect by soil treatment, I: wild oat", "setting": "[29]", "value": "0 (Herbicidal rate of 5% or less (almost no effect))"}, {"measurement": "Herbicidal effect by soil treatment, G: green foxtail", "setting": "[30]", "value": "0 (Herbicidal rate of 5% or less (almost no effect))"}]}]}
